Several values for one entry are separate records, joined by “and”; a condition that tells them apart may be missing. Identical values can stand only once. Like-named read-outs stand apart in the source and are kept apart here. Where a SMILES comes first, the peptide text is derived from it. Bridges are numbered along the chain shown (N, C = ends). [ ]: non-standard residue; d: D form. The star is where a group is joined. βGlc = OC[C@H]1O[C@@H](*)[C@H](O)[C@@H](O)[C@@H]1O; 1Nal = N[C@@H](Cc1cccc2ccccc12)C(=O)O
Columns and labels:
[1] = In vivo microdialysis and plasma pharmacokinetics (BBB penetration); design: species or system Sprague-Dawley rats; conditions: rat, 10 mg/kg i.v.; for AUC Brain (estimated CSF, brain dialysate): striatal dialysate 0-60 min
Experimental: Following intravenous bolus injection, AUC, Cmax, half-life, and Tmax were determined in plasma and CSF dialysate, and the CSF/plasma ratios for AUC of the analogs were compared (Table 1).
Blood Brain Barrier Penetration and Pharmacokinetics
Animals: Male, Sprague-Dawley rats (225-325, n = 3/group; Envigo RMC Inc., Indianapolis, IN were used for in vivo microdialysis and pharmacokinetic experiments. Rats were co-housed in a temperature/humidity-controlled room on a 12-h reversed light/dark cycle. Food and water were available ad libitum. Animal studies were approved by The University of Arizona Institutional Animal Care and Use Committee, in accordance with NIH’s Care and Use of Laboratory Animals […]
Carotid Artery Catheterization and Microdialysis Surgery: Both procedures were performed in the same anesthetic event in accordance with our previous studies, with one exception, the left carotid artery was catheterized in each animal.2
In Vivo Microdialysis and Plasma Sampling: Blood-brain-barrier penetration and […]
same time to minimize injection site variations and individual differences between the animals. […]
following changes (Figure S3). 2, 4 The microdialysis probe (FZ-8-04; Amuza, San Diego, CA) was inserted into the striatum and perfused with aCSF (15 mM Tris HCl, 10 mM Tris base, 126 mM NaCl, 2.5 KCl, 1.2 mM NaH 2PO4, 2mM Na 2SO4, and adjusted pH to 7.4) at a rate of 0.5 µL/minute using one channel of a dual syringe pump (Fusion 101A Syringe Pump; Chemyx, Stafford, TX).
Boise, ID) and injected via the lateral tail vein. Brain dialysate samples used to estimate CSF were collected over 10 minutes, where t = 0 corresponds to the injection: t = -10, 0, 10, 20, 30, 40, 50, and 60 minutes. Blood was sampled to correspond with the median timepoint of the dialysate fraction, where t = 0 corresponds to the injection: t = -5, 0, 1, 5, 15, 25, 35, 45, and 55 […]
minutes. To separate plasma from whole blood, each sample was collected in ethylenediamine tetraacetic acid capillary tubes (CT-CB300-K2EDTA; Sarstedt, Nümbrecht, Germany), inverted repeatedly for 30 seconds, and centrifuged for 10 minutes at 2,000 x g in a refrigerated centrifuge (Galaxy Mini Centrifuge; VWR, Radnor, PA).
Brain dialysate (5 μL) and plasma (5 μL) were mixed with 5 μL and 50 μL of preservation solution […]
Enkephalin), respectively, and then vortexed for 10 seconds. 90 μL of cold acetone and deionized water (75:25, v/v) was added to precipitate dialysate and plasma proteins. After vortexing for 30 seconds, samples were centrifuged at 13,000 rpm for 15 minutes at 4 °C. The supernatant was evaporated using a Savant Speedvac concentrator. Dialysate and plasma samples were reconstituted in a 20 μL and 200 μL diluent (2% acetonitrile and 0.1% formic acid in deionized water), respectively. Samples were injected into the ThermoFisher UHPLC-MS/MS TSQ system.
Chromatographic separation was achieved on an ACQUITY UPLC HSS T3 C18 Column (100 Å, 1.8 µm, 2.1 X 100 mm) and VanGuard pre-column (HSS T3 1.8 μm, 2.1 X 5 mm) with the temperature set at 20 ℃. A water-acetonitrile gradient with a 0.3 mL/minute flow rate was used.
The mobile phases used were A: 0.1% v/v formic acid in deionized water and B: 0.1% v/v formic acid in acetonitrile. An injection volume of 8 µL was used. Detection was achieved using a Thermo Fisher TSQ Fortis Plus mass spectrometry instrument with an H-ESI ion source. The instrument was operated in a positive ion mode. The MRM mode was used for quantification using target […]
protonated ZH853 (MW 809.92 gmol-1). Concentrations were calculated using the response factor-concentration plot. Pharmacokinetic parameters, including the area under the curve (AUC), maximum plasma concentration (Cmax), the time to reach Cmax (Tmax), and half-life (t1/2), were […]
(§1) using the microdialysis probe recovery rate. All data are presented as mean ± SEM.

mu opioid receptor (MOR) = biological target: T1, mu opioid receptor (MOR) (Homo sapiens, UniProt P35372); assay: Opioid receptor binding (NIMH PDSP), MOR
T1 construct: NIMH Psychoactive Drug Screening Program (PDSP)
T1 sequence (P35372 whole entry): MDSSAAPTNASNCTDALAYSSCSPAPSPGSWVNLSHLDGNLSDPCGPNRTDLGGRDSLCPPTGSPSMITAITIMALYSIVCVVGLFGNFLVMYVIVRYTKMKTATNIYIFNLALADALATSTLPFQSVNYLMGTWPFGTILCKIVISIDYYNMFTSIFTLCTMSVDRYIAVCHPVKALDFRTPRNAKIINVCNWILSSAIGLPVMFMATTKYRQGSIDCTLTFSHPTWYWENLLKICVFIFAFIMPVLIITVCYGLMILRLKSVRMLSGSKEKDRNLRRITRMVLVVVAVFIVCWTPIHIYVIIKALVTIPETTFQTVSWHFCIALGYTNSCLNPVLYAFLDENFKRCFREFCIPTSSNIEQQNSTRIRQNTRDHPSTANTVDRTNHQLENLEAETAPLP
Excerpt: (§2) Ki determinations at the 3 canonical opioid receptors, MOR, DOR. and KOR. were generously performed by the NIMH Psychoactive Drug Screening Program (PDSP), directed by Bryan L. Roth at the University of North Carolina at Chapel Hill and Project Officer Jamie Driscoll at NIMH, Bethesda. MD.

[2] = biological target: T2, delta opioid receptor (DOR) (Homo sapiens, UniProt P41143); assay: Opioid receptor binding (NIMH PDSP), DOR
T2 construct: NIMH Psychoactive Drug Screening Program (PDSP)
T2 sequence (P41143 whole entry): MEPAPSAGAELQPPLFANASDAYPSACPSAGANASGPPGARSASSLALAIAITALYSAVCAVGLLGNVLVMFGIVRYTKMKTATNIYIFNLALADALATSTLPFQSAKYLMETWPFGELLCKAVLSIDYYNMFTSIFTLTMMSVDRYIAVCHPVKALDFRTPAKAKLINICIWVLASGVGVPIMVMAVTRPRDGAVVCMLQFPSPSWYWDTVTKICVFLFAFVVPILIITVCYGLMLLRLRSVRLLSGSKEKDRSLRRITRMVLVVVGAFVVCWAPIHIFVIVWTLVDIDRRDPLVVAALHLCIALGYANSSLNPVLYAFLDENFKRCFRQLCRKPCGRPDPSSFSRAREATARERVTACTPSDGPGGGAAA
Excerpt: as §2

DOR = biological target: T3, DOR (Homo sapiens, UniProt P41143); assay: Gi signaling (inhibition of cAMP) in opioid-receptor-expressing HEK cells, DOR; type: cell-based
T3 construct: host or cells: HEK cells expressing the receptor (from the earlier reading's assay name)
T3 sequence (P41143 whole entry): as above
Experimental: (§3) Opioid-receptor-specific functional activity was assessed in cyclicAMP (cAMP) assays by PDSP.

KOR = KOR (Homo sapiens, UniProt P41145); assay: cell-based; conditions: HEK cells; means and SEMs of 3–6 assays; read-out: IC50 KOR (κ), cAMP
Chain of KOR (P41145 whole entry): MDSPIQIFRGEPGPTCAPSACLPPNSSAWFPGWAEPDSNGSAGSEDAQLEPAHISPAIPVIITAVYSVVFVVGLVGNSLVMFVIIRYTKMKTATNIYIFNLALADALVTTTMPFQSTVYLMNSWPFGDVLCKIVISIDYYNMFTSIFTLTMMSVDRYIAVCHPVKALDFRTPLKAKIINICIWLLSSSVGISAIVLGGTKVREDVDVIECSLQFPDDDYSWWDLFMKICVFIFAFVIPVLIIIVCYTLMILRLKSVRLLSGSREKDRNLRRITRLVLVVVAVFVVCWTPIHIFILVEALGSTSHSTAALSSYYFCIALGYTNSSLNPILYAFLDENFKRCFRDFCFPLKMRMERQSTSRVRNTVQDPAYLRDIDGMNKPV

MOR = biological target: T4, MOR (Homo sapiens, UniProt P35372); assay: Gi signaling (inhibition of cAMP) in opioid-receptor-expressing HEK cells, MOR; type: cell-based
T4 construct: host or cells: HEK cells expressing the receptor (from the earlier reading's assay name)
T4 sequence (P35372 whole entry): as the sequence (P35372 whole entry) above
Experimental: as §3

[3] = biological target: T5, kappa opioid receptor (KOR) (Homo sapiens, UniProt P41145); assay: Opioid receptor binding (NIMH PDSP), KOR
T5 construct: NIMH Psychoactive Drug Screening Program (PDSP)
T5 sequence (P41145 whole entry): as the sequence (P41145 whole entry) above
Excerpt: as §2

[4] = system: male and female CD-1 mice; assay: Tail flick (TF) antinociception; type: in vivo; conditions: for ED50: Mus musculus, sc
Excerpt: as §1
For the dialysate, the mean
Animals: Male and female CD-1 and DBA mice, 21–29 g at testing, were obtained from Charles River (Wilmington, MA) and housed in a 12-h light/dark cycle. All experiments were approved by the Tulane Institutional Animal Care and Use Committee and conducted according to the NIH Guide for the Care and Use of Laboratory Animals. All efforts were made to minimize animal suffering and to reduce the number of animals used.
Tail Flick (TF): CD1 mice were used for this test. The latency to withdraw the tail from a heat source was automatically measured (IITC, Woodland Hills, CA). […]
with a cutoff time of 9 s to prevent tissue damage. Percent Maximum Possible Effect (%MPE) was determined as [(latency-baseline latency)/(9-baseline latency)]*100. […]
(§4) calculated and used as the peak response for determining ED50’s. Initial tests, based on previous studies with ZH853, were 3h in duration.
(§5) Additional subgroups (n = 4-5) were therefore tested for 5h. […] For the time course (Figure 3) […]
(§6) animals were used. Duration of antinociception was assessed using both the area under the curve (AUC) and duration of antinociception, calculated as the time from the first to the last time point greater than or equal to 50% MPE.
(§7) Hot Plate (HP) Test: This test reflects a supraspinally organized complex response, 6 and was used to assess the CNS activation of antinociception by peripherally (s.c.) administered […]
(§8) to reduce test compound requirements. The HP apparatus (IITC, Woodland Hills, CA) was set to 55.5°C, a temperature that elicited a response after 7-9 sec. Three baseline HP latencies to rapidly lift, lick, or shake the hind paws were taken prior to drug injection. Mice were removed from the HP after a maximum of 30 sec. Mice were injected with several analogs (0–5.6 mg/kg s.c.) and tested from 30–300 min after injection.
(%MPE) as described for TF.

male and female DBA mice = assay: animal or person; type: in vivo; conditions: for ED50: Mus musculus, sc
Experimental: as §4, §5, §6, §7, §8
(%MPE) as described for TF. […]
each of those respective times was therefore calculated and used as the peak response for determining ED50’s. These values were used to calculate area under the curve (AUC). The duration of antinociception greater than 50% MPE was calculated as with TF.
Figure S3. Microdialysis and Pharmacokinetics Experiment Scheme.
Scheme depicts catheterization and microdialysis of the rat striatum. […]
endomorphin-1 analog (10 mg/kg; i.v.) ZH853 = ZH853•HCl (10 mg/kg; i.v.); aCSF = artificial cerebrospinal fluid. Created with BioRender.com (Agreement number MH26RXD2YP).
(1 picture or pasted object on this page, not shown here)

[5] = male, Sprague-Dawley, iv, brain dialysate, read-out: Tmax Brain (dialysate) (converted)
[6] = male, Sprague-Dawley, iv, plasma, read-out: Tmax Plasma (converted)
[7] = male, Sprague-Dawley, brain dialysate, iv, 10 mg/kg, brain dialysate, read-out: Half-life Brain (dialysate)
[8] = male, Sprague-Dawley, plasma, iv, 10 mg/kg
[9] = male, Sprague-Dawley, plasma, iv, 10 mg/kg, plasma 0-55 min, n=3
[10] = male, Sprague-Dawley, plasma, iv, 10 mg/kg, plasma, read-out: Half-life Plasma
[11] = tail flick, 10 mg/kg morphine, 1.8 mg/kg A2

Compound: NC(=O)[C@H](CO[C@@H]1O[C@H](CO)[C@@H](O)[C@H](O)[C@H]1O)NC(=O)[C@@H]1CCC(=O)NCCCC[C@@H](NC(=O)[C@@H](N)Cc2ccc(O)cc2)C(=O)N[C@@H](Cc2c[nH]c3ccccc23)C(=O)N[C@@H](Cc2ccccc2)C(=O)N1 [Analog A1]
- Tmax [1, 5]: 5 min
- Tmax [1, 6]: 1 min
- half-life [1, 7]: 16.6 ± 7.9 min
- Cmax [1, 8]: 15.7 ± 7.4 µM
- AUC [1, 9]: 2.62 µM·h
- half-life [1, 10]: 25.9 ± 5.7 min
- AUC of plasma, increase over ZH853 ([1]; 0-55 min): ~ 1.5 fold
- AUC of estimated CSF, increase over ZH853 ([1]; 0-60 min): ~ 8 fold
- Cmax Brain (dialysate) ([1]; brain dialysate, 10 mg/kg): 10.8 ± 6.5 µM and 11 ± 7 µM
- AUC Brain (estimated CSF, brain dialysate) ([1]; n=3, 10 mg/kg): 141.0 ± 69.2 µM·min and 141 ± 69 µM·min

Compound: NC(=O)[C@H](CO[C@@H]1O[C@H](CO)[C@@H](O)[C@H](O)[C@H]1O)NC(=O)[C@@H]1CCC(=O)NCCCC[C@@H](NC(=O)[C@@H](N)Cc2ccc(O)cc2)C(=O)N[C@@H](Cc2cccc3ccccc23)C(=O)N[C@@H](Cc2ccccc2)C(=O)N1 [Analog A6] (H-Y[dK][1Nal]FES(βGlc)-NH2; lactam 2-5; N-terminus assumed)
- Shift (reduction) of MOR affinity by glycosylation (mu opioid receptor (MOR); relative to unglycosylated peptides): ~5 fold

Compound: NC(=O)CNC(=O)[C@@H]1CCC(=O)NCCCC[C@@H](NC(=O)[C@@H](N)Cc2ccc(O)cc2)C(=O)N[C@@H](Cc2c[nH]c3ccccc23)C(=O)N[C@@H](Cc2ccccc2)C(=O)N1 [ZH853]
- Ki [2]: 385 ± 61 nM
- IC50 (DOR): 377 ± 166 nM
- Tmax [1, 5]: 28 min
- Tmax [1, 6]: 2 min
- half-life [1, 7]: 6.1 ± 0.7 min
- Cmax [1, 8]: 16.5 ± 3 µM
- AUC [1, 9]: 1.83 µM·h
- half-life [1, 10]: 15.9 ± 2.3 min
- AUC CSF/Plasma ratio [1]: 0.189
- Cmax Brain (dialysate) ([1]; brain dialysate, 10 mg/kg): 1.5 ± 0.2 µM and 2 ± 0.2 µM
- Half-life Brain (dialysate) ([1]; brain dialysate, 10 mg/kg): 6 ± 0.7 min
- AUC Plasma ([1]; plasma 0-55 min, n=3, 10 mg/kg): 110 ± 37 µM·min
- Cmax ([1]; plasma, 10 mg/kg): 17 ± 3 µM
- Half-life Plasma ([1]; plasma, 10 mg/kg): 16 ± 2 min
- AUC Brain (estimated CSF, brain dialysate) ([1]; n=3, 10 mg/kg): 20.7 ± 7.9 µM·min and 21 ± 8 µM·min
- IC50 (KOR): 2270 ± 273 nM
- Ki (mu opioid receptor (MOR)): 0.61 ± 0.2 nM
- Ki MOR (μ) (mu opioid receptor (MOR); mean ± SEM of 3 replicate assays): subnanomolar
- Selectivity δ/μ (binding) (mu opioid receptor (MOR); ratio of Ki): 631
- Selectivity κ/μ (binding) (mu opioid receptor (MOR); ratio of Ki): 2353
- IC50 (MOR): 0.07 ± 0.04 nM
- Selectivity δ/μ (cAMP) (MOR; ratio of IC50): 5220
- Selectivity κ/μ (cAMP) (MOR; ratio of IC50): 31460
- Ki [3]: 1440 ± 306 nM

Compound: CN1CC[C@]23c4c5ccc(O)c4O[C@H]2[C@@H](O)C=C[C@H]3[C@H]1C5 [morphine]
- ED50 ([4]; female CD-1 mice, %MPE at peak response, read-out: Tail flick ED50 Female): 1.57 ± 0.35 mg/kg
- ED50 ([4]; female CD-1 mice, read-out: Tail flick ED50 Female): 4.69 ± 1.08 µmol/kg
- ED50 ([4]; male CD-1 mice, read-out: Tail flick ED50 Male): 3.74 ± 0.39 µmol/kg
- Time of peak response ([4]; tail flick): 20 to 30 min
- Duration of antinociception ([4]; tail flick, 5.6 mg/kg): ~2 h
- Antinociception at matched doses [4, 11]: 100 %MPE
- Duration of antinociception at matched doses [4, 11]: > 3 h
- ED50 (male and female DBA mice; female DBA mice, %MPE at peak response, read-out: Hot plate ED50 Female): 2.33 ± 0.18 mg/kg
- ED50 (male and female DBA mice; female DBA mice, read-out: Hot plate ED50 Female): 6.99 ± 0.52 µmol/kg
- ED50 (male and female DBA mice; male DBA mice, %MPE at peak response, read-out: Hot plate ED50 Male): 2.82 ± 0.24 mg/kg
- ED50 (male and female DBA mice; male DBA mice, read-out: Hot plate ED50 Male): 8.43 ± 0.73 µmol/kg
- Time of peak response (male and female DBA mice; hot plate): 30 to 45 min

Compound: NC(=O)[C@H](CO)NC(=O)[C@@H]1CCC(=O)NCCCC[C@@H](NC(=O)[C@@H](N)Cc2ccc(O)cc2)C(=O)N[C@@H](Cc2c[nH]c3ccccc23)C(=O)N[C@@H](Cc2ccccc2)C(=O)N1 [Analog A8]
- Ki [3]: 1260 ± 145 nM
